These results are taken from PubChem BioAssay (NCI).

Among the test systems are HCC-2998 colon; ACHN renal; LOX IMVI melanoma; MDA-MB-231 breast; M14 melanoma; TK-10 renal; SK-OV-3 ovarian; HOP-92 NSCLC.
Common to all, as to experiment: NCI tumour cell line growth inhibition, 48 h

The structures appear in SMILES notation. Where “and” joins values, the source holds several entries; their conditions need not be identical. Equal entries are not always repeated.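 These data come from cells grown in 96-well plates and exposed to compound for 48 hours at five concentrations. GI50 is the concentration that inhibits growth by half. TGI: concentration producing complete growth inhibition.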

As for `CC(C)C[C@H](NC(=O)[C@@H](NC(=O)c1cccc(-c2ccccc2)n1)[C@@H](C)O)B(O)O`, the GI50 is 0.00517 µM and 0.0116 µM with HCC-2998 colon; 0.00408 µM with ACHN renal; 0.00473 µM with LOX IMVI melanoma; 0.00485 µM and 0.0191 µM with MDA-MB-231 breast; 0.00352 µM with TK-10 renal; 0.0474 µM and 0.0325 µM with SK-OV-3 ovarian. Moreover, the GI50 with HOP-92 NSCLC was 0.0209 µM. The TGI is 0.0171 µM and 0.0189 µM with HCC-2998 colon; > 11.1 µM in the test with ACHN renal; 0.0181 µM and 0.0119 µM in the test with LOX IMVI melanoma; 0.0207 µM with M14 melanoma; 0.0592 µM and < 0.0273 µM in the test with TK-10 renal; 7.82 µM in the test on SK-OV-3 ovarian. The molecule further returned a TGI with HOP-92 NSCLC of 0.119 µM.

Turning to `CN1C[C@@H]2Cn3c(c(C4=C(c5cn(C)c6ccccc56)C(=O)NC4=O)c4ccccc43)C[C@H]2C1`, the GI50 with HCC-2998 colon was 4.59 µM and 4.4 µM; with ACHN renal, 4.16 µM and 3.51 µM; in the test with LOX IMVI melanoma, 4.16 µM and 3.96 µM; in the test with MDA-MB-231 breast it was 4.37 µM and 4.1 µM; in the test with M14 melanoma, 4.07 µM and 3.96 µM; with TK-10 renal, 3.5 µM and 3.74 µM. Besides, the GI50 in the test on SK-OV-3 ovarian is 4.56 µM and 4.06 µM; in the test with HOP-92 NSCLC, 6.76 µM. Moreover, the TGI in the test on HCC-2998 colon is 8.71 µM and 9.65 µM; in the test on ACHN renal it was 12.6 µM and 8.98 µM; with LOX IMVI melanoma, 7.9 µM and 7.86 µM; in the test on MDA-MB-231 breast, 8.85 µM and 9.22 µM; in the test on M14 melanoma, 8.24 µM and 7.83 µM; in the test on TK-10 renal, 7.6 µM and 8.41 µM. Besides, the TGI in the test with SK-OV-3 ovarian was 11.8 µM and 11.9 µM; in the test with HOP-92 NSCLC it was 12.7 µM.

Regarding `Cc1cnccc1N=Nc1ccc(N(C)C)cc1`, the TGI is 49.6 µM in the test with HCC-2998 colon; > 100 µM with ACHN renal; 53.9 µM in the test with LOX IMVI melanoma; 70.6 µM in the test on MDA-MB-231 breast; > 100 µM in the test with M14 melanoma; 50.9 µM in the test on TK-10 renal. Besides, the values for the TGI with SK-OV-3 ovarian and with HOP-92 NSCLC were 48.2 µM and 36.1 µM, respectively.

In the case of `C=C1C(=O)OC2/C=C(\CO)CC/C=C(\CO)CC(OC(=O)C(C)C)C12` (stereo unspecified), the TGI came out at 37.2 µM in the test on HCC-2998 colon; 3.54 µM in the test with ACHN renal; 45.8 µM in the test with LOX IMVI melanoma; 38 µM in the test on MDA-MB-231 breast; 19.9 µM in the test with M14 melanoma; 15.6 µM with TK-10 renal. The TGI in the test on SK-OV-3 ovarian is > 55.9 µM; in the test with HOP-92 NSCLC it was 4.13 µM.

As to `Cc1ncc(C(=O)Nc2ccc(CN3CCN(C)CC3)c(C(F)(F)F)c2)cc1C#Cc1c(N)ncc2ccccc12`, the GI50 in the test with HCC-2998 colon is 0.446 µM; in the test on ACHN renal, 0.336 µM; with LOX IMVI melanoma it was 0.173 µM; in the test with MDA-MB-231 breast it was 0.163 µM; in the test with M14 melanoma, 0.0923 µM; in the test with TK-10 renal, 0.623 µM. The GI50 in the test on SK-OV-3 ovarian was 1.61 µM; in the test on HOP-92 NSCLC, 0.0535 µM. Also, the TGI with HCC-2998 colon worked out at 0.899 µM; in the test on ACHN renal, 0.732 µM; in the test on LOX IMVI melanoma it was 0.605 µM; in the test on MDA-MB-231 breast, 0.65 µM; in the test on M14 melanoma, 0.476 µM; in the test with TK-10 renal, 1.12 µM. The TGI came to 5.06 µM in the test with SK-OV-3 ovarian and 0.505 µM with HOP-92 NSCLC.

Regarding `NS(=O)(=O)c1ccc(-n2ncc3c(Nc4ccccc4)ncnc32)cc1`, the GI50 was 16.6 µM in the test on HCC-2998 colon; 38.5 µM in the test with ACHN renal; 14.9 µM with LOX IMVI melanoma; 15 µM in the test with MDA-MB-231 breast; 32.8 µM with M14 melanoma; 19.1 µM in the test on TK-10 renal. Further, the GI50 in the test with SK-OV-3 ovarian is 99.8 µM; in the test on HOP-92 NSCLC, 23.6 µM. The TGI is 57.7 µM in the test with HCC-2998 colon; > 100 µM with ACHN renal; 70 µM with LOX IMVI melanoma; 87.1 µM in the test on MDA-MB-231 breast; > 100 µM in the test with M14 melanoma; > 100 µM in the test with TK-10 renal. The TGI in the test on SK-OV-3 ovarian and in the test on HOP-92 NSCLC was > 100 µM in each case.

For the molecule `Cn1cnc2c(F)c(Nc3ccc(Br)cc3F)c(C(=O)NOCCO)cc21`, the GI50 is 0.0162 µM and 0.034 µM in the test on HCC-2998 colon; 10.5 µM in the test on ACHN renal; 0.0936 µM and 0.399 µM in the test with LOX IMVI melanoma; 0.111 µM and 0.837 µM with MDA-MB-231 breast; 0.0175 µM and 0.0233 µM in the test on M14 melanoma; 3.07 µM and 1.34 µM in the test on TK-10 renal. The GI50 in the test with SK-OV-3 ovarian was > 92 µM; with HOP-92 NSCLC, 0.0606 µM and 0.11 µM. Moreover, the TGI in the test with HCC-2998 colon is 4.51 µM; in the test with ACHN renal, > 100 µM; with LOX IMVI melanoma, > 4.03 µM and 42.8 µM; in the test on MDA-MB-231 breast, > 100 µM; in the test with M14 melanoma it was 0.307 µM; in the test on TK-10 renal it was > 100 µM. For the same molecule, the TGI was > 100 µM with SK-OV-3 ovarian; 1.9 µM and 2.01 µM in the test with HOP-92 NSCLC.

With `CCOC(=O)C(C(=O)OCC)C(=O)c1ccccc1C(=O)c1ccccc1`, the TGI with HCC-2998 colon, with ACHN renal, in the test on LOX IMVI melanoma, in the test on MDA-MB-231 breast, in the test on M14 melanoma and in the test on TK-10 renal was > 100 µM in each case. Besides, the TGI with SK-OV-3 ovarian and in the test with HOP-92 NSCLC was > 100 µM each time.

As for `COc1ccc(Cn2cc3c(c2-c2cc(OC)c(OC)c(OC)c2)CCc2cnoc2-3)cc1N`, the GI50 in the test with HCC-2998 colon is 0.0882 µM; in the test with ACHN renal, 0.0731 µM; with LOX IMVI melanoma it was 0.0641 µM; in the test with MDA-MB-231 breast, 0.158 µM; in the test with M14 melanoma, 0.0507 µM; in the test on TK-10 renal it was 0.0689 µM. Besides, the GI50 in the test with SK-OV-3 ovarian was 0.0447 µM; with HOP-92 NSCLC, 4.58 µM. Besides, the TGI was > 42 µM with HCC-2998 colon; > 100 µM in the test with ACHN renal; > 100 µM with LOX IMVI melanoma; > 100 µM with MDA-MB-231 breast; > 100 µM in the test on M14 melanoma; > 100 µM with TK-10 renal. Further, the TGI in the test with SK-OV-3 ovarian and in the test on HOP-92 NSCLC was > 100 µM throughout.

For the molecule `COc1ccc(-c2cc(-c3cccc(NS(C)(=O)=O)c3)nc(N)c2C#N)cc1`, the GI50 in the test with HCC-2998 colon is 0.185 µM; with ACHN renal it was 0.0789 µM; in the test on LOX IMVI melanoma, 0.0743 µM; with MDA-MB-231 breast, 0.335 µM; with M14 melanoma, 0.0808 µM; in the test with TK-10 renal, 0.278 µM. The figures for the GI50 in the test with SK-OV-3 ovarian and in the test with HOP-92 NSCLC were 0.0879 µM and 3.38 µM, respectively. For the same molecule, the TGI was 2.44 µM in the test on HCC-2998 colon; 43.9 µM with ACHN renal; > 37.5 µM in the test with LOX IMVI melanoma; 5.14 µM in the test with MDA-MB-231 breast; 10.7 µM in the test with M14 melanoma; > 47.5 µM with TK-10 renal. Moreover, the TGI turned out to be 1.57 µM in the test on SK-OV-3 ovarian and 48.7 µM in the test on HOP-92 NSCLC.

`CN(C)CCSCCO`: the TGI in the test with HCC-2998 colon, with ACHN renal, with LOX IMVI melanoma, in the test on MDA-MB-231 breast, with M14 melanoma and in the test on TK-10 renal was > 100 µM throughout. The TGI in the test on SK-OV-3 ovarian and in the test with HOP-92 NSCLC was > 100 µM throughout.

Turning to `CN(CC(=O)O)Cc1oc(CO)cc(=O)c1O`, the TGI in the test on HCC-2998 colon, in the test on ACHN renal, in the test with LOX IMVI melanoma, in the test on MDA-MB-231 breast, with M14 melanoma and in the test with TK-10 renal was > 100 µM each time. Moreover, the TGI with SK-OV-3 ovarian and in the test with HOP-92 NSCLC was > 100 µM each time.

Consider `Cc1cc(N(CCCNc2ccnc3cc(Cl)ccc23)Cc2ccc3c(c2)OCO3)nc(N2CCCCC2)n1`, for which the GI50 is 2.09 µM in the test on HCC-2998 colon; 2.32 µM in the test on ACHN renal; 1.69 µM in the test on LOX IMVI melanoma; 1.88 µM with MDA-MB-231 breast; 1.77 µM in the test with M14 melanoma; 1.91 µM in the test on TK-10 renal. Further, the GI50 with SK-OV-3 ovarian was 2.74 µM; in the test with HOP-92 NSCLC, 1.12 µM. Besides, the TGI in the test on HCC-2998 colon was 4.79 µM; with ACHN renal, 4.84 µM; in the test on LOX IMVI melanoma, 3.29 µM; in the test on MDA-MB-231 breast, 4.06 µM; with M14 melanoma, 3.47 µM; in the test on TK-10 renal it was 4.01 µM. Also, the TGI in the test on SK-OV-3 ovarian worked out at 8.46 µM; in the test on HOP-92 NSCLC, 3.49 µM.

On to `Nc1cc(S(N)(=O)=O)ccc1SSc1ccc(S(N)(=O)=O)cc1N`, for which the TGI in the test with HCC-2998 colon, with ACHN renal, in the test on LOX IMVI melanoma, with MDA-MB-231 breast, in the test on M14 melanoma and in the test on TK-10 renal was > 100 µM in each case. Further, the TGI in the test on SK-OV-3 ovarian and with HOP-92 NSCLC was > 100 µM each time.

For the molecule `CCN(CC)CCn1c2ccc(OC)cc2c2sc3cc(OC)ccc3c(=O)c21`, the GI50 in the test with HCC-2998 colon was 1.48 µM; in the test with ACHN renal it was 1 µM; in the test with LOX IMVI melanoma, 1.3 µM; in the test on MDA-MB-231 breast it was 1.54 µM; in the test on M14 melanoma, 1.64 µM; in the test with TK-10 renal, 2.33 µM. The GI50 was 3.07 µM in the test on SK-OV-3 ovarian and 1.13 µM in the test with HOP-92 NSCLC. Moreover, the TGI was found to be 3.14 µM in the test with HCC-2998 colon; 2.77 µM in the test on ACHN renal; 2.74 µM in the test on LOX IMVI melanoma; 3.31 µM in the test on MDA-MB-231 breast; 3.08 µM in the test with M14 melanoma; 8.15 µM in the test on TK-10 renal. Further, the TGI came to 10.3 µM in the test on SK-OV-3 ovarian and 2.75 µM in the test with HOP-92 NSCLC.

For `O=C(COc1cccc(/C=C2\Oc3ccc4ccccc4c3C2=O)c1)c1ccc(Cl)cc1`, the GI50 with HCC-2998 colon is > 100 µM; in the test on ACHN renal, > 100 µM; in the test with LOX IMVI melanoma it was 8.7 µM; with MDA-MB-231 breast, 43.5 µM; in the test with M14 melanoma, 18.1 µM; with TK-10 renal, > 100 µM. Besides, the GI50 in the test with SK-OV-3 ovarian and with HOP-92 NSCLC was > 100 µM throughout. The TGI in the test on HCC-2998 colon was > 100 µM; in the test with ACHN renal it was > 100 µM; in the test on LOX IMVI melanoma, 21.9 µM; with MDA-MB-231 breast, > 100 µM; in the test with M14 melanoma, 43 µM; in the test with TK-10 renal it was > 100 µM. Besides, the TGI in the test on SK-OV-3 ovarian and in the test with HOP-92 NSCLC was > 100 µM throughout.
